# Laboratory results reported in the supplement of paper PMC4862054.
# Tested on: MDA-MB-436
# Test: normalised response (% of control), CellTiter-Glo; higher = more viable cells (100 = DMSO, 0 = benzethonium chloride kill control)
# Conditions: incubation time: 72 h
# How it was run: (§1)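 For each plate, 0.1 % DMSO was set to 100 and a positive kill control to 0. Breast cancer cell lines (20 µl suspension) were seeded into 384-well plates already holding compound at 5 concentrations in 10-fold steps over a 10,000-fold range chosen per compound, and incubated for 72 h. CellTox Green fluorescence at 485/520 nm was read before CellTiter-Glo luminescence, which followed 10 min at room temperature. Each value is the normalised signal at one concentration.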
row,Structure (SMILES),normalised response [%]
1,C=C1C[C@@H]2[C@H](CC[C@]3(C)C(=O)CC[C@@H]23)[C@@]2(C)C=CC(=O)C=C12 [Exemestane] (1000 nM),102
2,COc1cc2ncnc(Nc3ccc(F)c(Cl)c3)c2cc1OCCCN1CCOCC1 [Gefitinib] (1000 nM),103
3,O=C(Nc1ccncc1)C(=O)c1cn(Cc2ccc(Cl)cc2)c2ccccc12 [Indibulin] (1000 nM),42.2
4,NC(=O)c1ccc(I)c([N+](=O)[O-])c1 [Iniparib] (1000 nM),88.2
5,CCc1c2c(nc3ccc(OC(=O)N4CCC(N5CCCCC5)CC4)cc13)-c1cc3c(c(=O)n1C2)COC(=O)[C@]3(O)CC [Irinotecan] (1000 nM),64.5
6,Oc1ccc2c(c1)CC[C@H](c1ccccc1)[C@@H]2c1ccc(OCCN2CCCC2)cc1 [Lasofoxifene] (100 nM),107
7,Cc1ccc(NC(=O)c2ccc(CN3CCN(C)CC3)cc2)cc1Nc1nc(-c2cccnc2)cs1 [Masitinib] (1000 nM),105
8,O=C(Nc1cccnc1)N1CCC(Cc2cccc(Oc3ccc(C(F)(F)F)cn3)c2)CC1 [PF-3845] (1000 nM),104
9,Cc1[nH]c2ccccc2c1CCNCc1ccc(/C=C/C(=O)NO)cc1 [Panobinostat] (100 nM),55
10,COCC1(CO)C(=O)C2CCN1CC2 (configuration not stated) [Prima-1 Met] (1000 nM),106
11,CNC(=O)c1cc(Oc2ccc(NC(=O)Nc3ccc(Cl)c(C(F)(F)F)c3)c(F)c2)ccn1 [Regorafenib] (1000 nM),101
12,c1ccc2c(CCNc3ccc(Nc4ccncc4)cc3)c[nH]c2c1 [Serdemetan] (1000 nM),89.5
13,CN(C)CCOc1ccc(/C(=C(/CCCl)c2ccccc2)c2ccccc2)cc1 [Toremifene] (1000 nM),104
14,CC(C)C[C@@H](C(=O)N[C@H](C(=O)OC1CCCC1)c1ccccc1)[C@H](O)C(=O)NO [Tosedostat] (1000 nM),73.6
15,COCC[n+]1c2c(n(Cc3cnccn3)c1C)C(=O)c1ccccc1C2=O [YM155] (1000 nM),-0.32

# Tested on: BT-549
# Test: as above
# Conditions: incubation time: 72 h
# How it was run: as §1
row,Structure (SMILES),normalised response [%]
1,N#Cc1ccc(COC[C@H]2O[C@@H](n3c(NCc4ccc(Cl)c(Cl)c4)nc4c(N)ncnc43)[C@H](O)[C@@H]2O)cc1 (1000 nM),89.9
2,COc1cc(OC2CCN(C)CC2)ccc1Nc1ncc2c(n1)n(C1CCCC1)c(=O)n2C [AZ 3146] (1000 nM),104
3,CN(C)c1nc(N(C)C)nc(N(C)C)n1 [Altretamine] (1000 nM),103
4,O=C(/C=C/c1cccc(S(=O)(=O)Nc2ccccc2)c1)NO [Belinostat] (1000 nM),59
5,O=P1(N(CCCl)CCCl)NCCCO1 (configuration not stated) [Cyclophosphamide] (4000 nM),103
6,C=C1C[C@@H]2[C@H](CC[C@]3(C)C(=O)CC[C@@H]23)[C@@]2(C)C=CC(=O)C=C12 [Exemestane] (1000 nM),92.5
7,COc1cc2ncnc(Nc3ccc(F)c(Cl)c3)c2cc1OCCCN1CCOCC1 [Gefitinib] (1000 nM),97.7
8,O=C(Nc1ccncc1)C(=O)c1cn(Cc2ccc(Cl)cc2)c2ccccc12 [Indibulin] (1000 nM),42.8
9,NC(=O)c1ccc(I)c([N+](=O)[O-])c1 [Iniparib] (1000 nM),101
10,CCc1c2c(nc3ccc(OC(=O)N4CCC(N5CCCCC5)CC4)cc13)-c1cc3c(c(=O)n1C2)COC(=O)[C@]3(O)CC [Irinotecan] (1000 nM),78.2
11,Oc1ccc2c(c1)CC[C@H](c1ccccc1)[C@@H]2c1ccc(OCCN2CCCC2)cc1 [Lasofoxifene] (100 nM),95.8
12,Cc1ccc(NC(=O)c2ccc(CN3CCN(C)CC3)cc2)cc1Nc1nc(-c2cccnc2)cs1 [Masitinib] (1000 nM),92.9
13,O=C(Nc1cccnc1)N1CCC(Cc2cccc(Oc3ccc(C(F)(F)F)cn3)c2)CC1 [PF-3845] (1000 nM),98.3
14,Cc1[nH]c2ccccc2c1CCNCc1ccc(/C=C/C(=O)NO)cc1 [Panobinostat] (100 nM),46.2
15,COCC1(CO)C(=O)C2CCN1CC2 (configuration not stated) [Prima-1 Met] (1000 nM),96.8
16,CNC(=O)c1cc(Oc2ccc(NC(=O)Nc3ccc(Cl)c(C(F)(F)F)c3)c(F)c2)ccn1 [Regorafenib] (1000 nM),105
17,c1ccc2c(CCNc3ccc(Nc4ccncc4)cc3)c[nH]c2c1 [Serdemetan] (1000 nM),84.2
18,CN(C)CCOc1ccc(/C(=C(/CCCl)c2ccccc2)c2ccccc2)cc1 [Toremifene] (1000 nM),104
19,CC(C)C[C@@H](C(=O)N[C@H](C(=O)OC1CCCC1)c1ccccc1)[C@H](O)C(=O)NO [Tosedostat] (1000 nM),55.9
20,COCC[n+]1c2c(n(Cc3cnccn3)c1C)C(=O)c1ccccc1C2=O [YM155] (1000 nM),-0.05

# Tested on: MFM-223
# Test: as above
# Conditions: incubation time: 72 h
# How it was run: as §1
row,Structure (SMILES),normalised response [%]
1,N#Cc1ccc(COC[C@H]2O[C@@H](n3c(NCc4ccc(Cl)c(Cl)c4)nc4c(N)ncnc43)[C@H](O)[C@@H]2O)cc1 (1000 nM),98.9
2,COc1cc(OC2CCN(C)CC2)ccc1Nc1ncc2c(n1)n(C1CCCC1)c(=O)n2C [AZ 3146] (1000 nM),98.2
3,CN(C)c1nc(N(C)C)nc(N(C)C)n1 [Altretamine] (1000 nM),103
4,O=C(/C=C/c1cccc(S(=O)(=O)Nc2ccccc2)c1)NO [Belinostat] (1000 nM),34.2
5,O=P1(N(CCCl)CCCl)NCCCO1 (configuration not stated) [Cyclophosphamide] (4000 nM),106
6,C=C1C[C@@H]2[C@H](CC[C@]3(C)C(=O)CC[C@@H]23)[C@@]2(C)C=CC(=O)C=C12 [Exemestane] (1000 nM),110
7,COc1cc2ncnc(Nc3ccc(F)c(Cl)c3)c2cc1OCCCN1CCOCC1 [Gefitinib] (1000 nM),100
8,O=C(Nc1ccncc1)C(=O)c1cn(Cc2ccc(Cl)cc2)c2ccccc12 [Indibulin] (1000 nM),60
9,NC(=O)c1ccc(I)c([N+](=O)[O-])c1 [Iniparib] (1000 nM),81.3
10,CCc1c2c(nc3ccc(OC(=O)N4CCC(N5CCCCC5)CC4)cc13)-c1cc3c(c(=O)n1C2)COC(=O)[C@]3(O)CC [Irinotecan] (1000 nM),104
11,Oc1ccc2c(c1)CC[C@H](c1ccccc1)[C@@H]2c1ccc(OCCN2CCCC2)cc1 [Lasofoxifene] (100 nM),105
12,Cc1ccc(NC(=O)c2ccc(CN3CCN(C)CC3)cc2)cc1Nc1nc(-c2cccnc2)cs1 [Masitinib] (1000 nM),103
13,O=C(Nc1cccnc1)N1CCC(Cc2cccc(Oc3ccc(C(F)(F)F)cn3)c2)CC1 [PF-3845] (1000 nM),109
14,Cc1[nH]c2ccccc2c1CCNCc1ccc(/C=C/C(=O)NO)cc1 [Panobinostat] (100 nM),35.2
15,COCC1(CO)C(=O)C2CCN1CC2 (configuration not stated) [Prima-1 Met] (1000 nM),103
16,CNC(=O)c1cc(Oc2ccc(NC(=O)Nc3ccc(Cl)c(C(F)(F)F)c3)c(F)c2)ccn1 [Regorafenib] (1000 nM),73.4
17,c1ccc2c(CCNc3ccc(Nc4ccncc4)cc3)c[nH]c2c1 [Serdemetan] (1000 nM),97
18,CN(C)CCOc1ccc(/C(=C(/CCCl)c2ccccc2)c2ccccc2)cc1 [Toremifene] (1000 nM),101
19,CC(C)C[C@@H](C(=O)N[C@H](C(=O)OC1CCCC1)c1ccccc1)[C@H](O)C(=O)NO [Tosedostat] (1000 nM),70.5
20,COCC[n+]1c2c(n(Cc3cnccn3)c1C)C(=O)c1ccccc1C2=O [YM155] (1000 nM),10.7

# Tested on: BT-474
# Test: as above
# Conditions: incubation time: 72 h
# How it was run: as §1
row,Structure (SMILES),normalised response [%]
1,N#Cc1ccc(COC[C@H]2O[C@@H](n3c(NCc4ccc(Cl)c(Cl)c4)nc4c(N)ncnc43)[C@H](O)[C@@H]2O)cc1 (1000 nM),81.8
2,COc1cc(OC2CCN(C)CC2)ccc1Nc1ncc2c(n1)n(C1CCCC1)c(=O)n2C [AZ 3146] (1000 nM),96.5
3,CN(C)c1nc(N(C)C)nc(N(C)C)n1 [Altretamine] (1000 nM),101
4,O=C(/C=C/c1cccc(S(=O)(=O)Nc2ccccc2)c1)NO [Belinostat] (1000 nM),23.1
5,O=P1(N(CCCl)CCCl)NCCCO1 (configuration not stated) [Cyclophosphamide] (4000 nM),93.1
6,C=C1C[C@@H]2[C@H](CC[C@]3(C)C(=O)CC[C@@H]23)[C@@]2(C)C=CC(=O)C=C12 [Exemestane] (1000 nM),103
7,COc1cc2ncnc(Nc3ccc(F)c(Cl)c3)c2cc1OCCCN1CCOCC1 [Gefitinib] (1000 nM),101
